Measured values: ChEMBL document CHEMBL1157802, “5-Functionalized indazoles as glucocorticoid receptor agonists” (Bioorg Med Chem Lett, 2010)
pEC50, pIC50: −log10 of the molar value.

What was measured:
Glucocorticoid receptor [1] = biological target: T1, Glucocorticoid receptor (Homo sapiens, UniProt P04150); experiment: Agonist activity at glucocorticoid receptor in human MDA-kb2 cells transfected with MMTV-LUC assessed as induction of MMTV-LTR/promoter linked LUC gene by luciferase transactivation assay; assay type: functional, cell-based; conditions: for pEC50: read-out: EC50
T1 sequence (P04150 whole entry): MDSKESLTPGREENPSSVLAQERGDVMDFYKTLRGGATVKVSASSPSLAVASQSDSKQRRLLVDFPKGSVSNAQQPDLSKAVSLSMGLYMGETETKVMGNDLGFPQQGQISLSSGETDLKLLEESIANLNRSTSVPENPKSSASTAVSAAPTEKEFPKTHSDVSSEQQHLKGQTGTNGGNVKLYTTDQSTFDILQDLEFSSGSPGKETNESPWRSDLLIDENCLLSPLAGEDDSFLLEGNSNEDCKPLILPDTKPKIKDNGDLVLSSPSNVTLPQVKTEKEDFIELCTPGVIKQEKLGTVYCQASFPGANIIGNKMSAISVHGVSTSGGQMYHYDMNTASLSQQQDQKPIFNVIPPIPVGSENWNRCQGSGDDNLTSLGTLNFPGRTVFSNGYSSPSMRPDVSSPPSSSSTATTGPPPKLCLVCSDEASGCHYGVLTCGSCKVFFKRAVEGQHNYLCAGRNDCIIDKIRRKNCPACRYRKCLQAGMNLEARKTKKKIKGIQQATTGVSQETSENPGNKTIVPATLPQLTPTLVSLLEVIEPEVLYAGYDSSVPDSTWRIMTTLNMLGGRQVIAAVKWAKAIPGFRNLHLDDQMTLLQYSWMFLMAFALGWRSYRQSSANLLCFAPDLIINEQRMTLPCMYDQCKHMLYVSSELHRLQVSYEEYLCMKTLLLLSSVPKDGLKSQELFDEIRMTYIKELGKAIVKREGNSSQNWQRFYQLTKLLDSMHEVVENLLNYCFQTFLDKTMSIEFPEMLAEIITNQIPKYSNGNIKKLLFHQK

Glucocorticoid receptor [2] = biological target: T1, Glucocorticoid receptor; experiment: Agonist activity at glucocorticoid receptor in human fibroblast assessed as inhibition of IL-1-beta-induced IL6 production treated 1 hr before IL1-beta challenge measured after 24 hrs by transrepression assay; assay type: functional
Glucocorticoid receptor [3] = biological target: T1, Glucocorticoid receptor
Description: Binding affinity to human glucocorticoid receptor by fluorescence polarization competitive binding assay

hERG (KCNH2) = hERG (KCNH2) (Homo sapiens, UniProt Q12809); experiment: Inhibition of human ERG at 1 uM
Chain of hERG (KCNH2) (Q12809 whole entry): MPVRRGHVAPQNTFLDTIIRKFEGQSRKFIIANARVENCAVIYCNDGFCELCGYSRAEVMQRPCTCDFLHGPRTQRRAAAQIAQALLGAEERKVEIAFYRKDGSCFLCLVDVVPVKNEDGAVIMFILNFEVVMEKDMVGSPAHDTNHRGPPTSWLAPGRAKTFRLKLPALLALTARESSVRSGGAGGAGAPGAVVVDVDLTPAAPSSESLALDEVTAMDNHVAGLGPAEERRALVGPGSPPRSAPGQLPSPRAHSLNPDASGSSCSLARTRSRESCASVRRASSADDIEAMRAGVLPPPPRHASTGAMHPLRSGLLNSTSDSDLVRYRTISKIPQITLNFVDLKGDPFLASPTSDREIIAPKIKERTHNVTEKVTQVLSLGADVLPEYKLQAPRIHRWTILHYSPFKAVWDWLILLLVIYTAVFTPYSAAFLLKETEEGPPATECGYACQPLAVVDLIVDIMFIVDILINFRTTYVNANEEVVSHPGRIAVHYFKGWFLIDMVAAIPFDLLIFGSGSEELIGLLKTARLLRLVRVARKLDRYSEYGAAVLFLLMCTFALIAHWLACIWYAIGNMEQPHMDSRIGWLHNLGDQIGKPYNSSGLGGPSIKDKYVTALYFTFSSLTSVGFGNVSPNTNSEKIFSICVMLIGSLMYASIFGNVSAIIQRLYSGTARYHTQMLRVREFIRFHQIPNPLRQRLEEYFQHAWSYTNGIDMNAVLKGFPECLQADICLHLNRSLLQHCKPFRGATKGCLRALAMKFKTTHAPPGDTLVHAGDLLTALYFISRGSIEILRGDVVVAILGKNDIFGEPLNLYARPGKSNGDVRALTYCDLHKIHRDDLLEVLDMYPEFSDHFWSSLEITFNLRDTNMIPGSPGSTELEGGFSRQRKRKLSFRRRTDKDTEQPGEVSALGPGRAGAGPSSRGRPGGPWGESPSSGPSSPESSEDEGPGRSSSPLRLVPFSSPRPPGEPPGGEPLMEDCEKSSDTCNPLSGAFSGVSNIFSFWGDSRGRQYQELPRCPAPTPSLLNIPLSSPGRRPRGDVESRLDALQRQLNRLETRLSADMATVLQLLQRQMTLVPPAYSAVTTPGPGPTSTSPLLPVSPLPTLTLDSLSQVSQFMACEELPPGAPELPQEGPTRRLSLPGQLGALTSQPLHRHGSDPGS

Mus musculus [4] = experiment: Antiinflammatory activity in mouse assessed as reduction of LPS-stimulated TNFalpha expression at 3 mg/kg relative to control; assay type: functional; parameters: scale not given: the % may be the effect or the level left
[5] = biological target: Voltage-gated inwardly rectifying potassium channel KCNH2 (Homo sapiens, UniProt Q12809); experiment: Inhibition of human ERG by patch clamp method
Chain of Voltage-gated inwardly rectifying potassium channel KCNH2 (Q12809 whole entry): as above

Mus musculus [6] = experiment: Antiinflammatory activity in mouse assessed as reduction of LPS-stimulated TNFalpha expression at 6 mg/kg relative to control; assay type: functional; parameters: scale not given: the % may be the effect or the level left
Mus musculus [7] = experiment: Antiinflammatory activity in mouse assessed as reduction of LPS-stimulated TNFalpha expression at 60 mg/kg relative to control; assay type: functional; parameters: scale not given: the % may be the effect or the level left

| Structure (SMILES) | pEC50 (Glucocorticoid receptor [1]) | pEC50 (Glucocorticoid receptor [2]) | pIC50 (Glucocorticoid receptor [3]) | inhibition at 1 µM (hERG (KCNH2)) [%] | Activity (Mus musculus [4]) [%] | pIC50 [5] | Activity (Mus musculus [6]) [%] | Activity (Mus musculus [7]) [%] | EC50 (Glucocorticoid receptor [1]; mda-kb2) |
| --- | --- | --- | --- | --- | --- | --- | --- | --- | --- |
| OC(c1ccc(F)c(Cl)c1)(c1ccc2c(cnn2-c2ccc(F)cc2)c1)C(F)(F)F (single isomer, unassigned; (-)) [1-(3-CHLORO-4-FLUOROPHENYL)-2,2,2-TRIFLUORO-1-(1-(4-FLUOROPHENYL)-1H-INDAZOL-5-YL)ETHANOL (ENANTIOMERIC MIX)] | 5.96 | 7.03 | 7.31 | – | – | – | – | – | – |
| OC(c1ccc2c(cnn2-c2ccc(F)cc2)c1)(c1cccc(Cl)c1Cl)C(F)(F)F (single isomer, unassigned; (+)) [1-(2,3-DICHLOROPHENYL)-2,2,2-TRIFLUORO-1-(1-(4-FLUOROPHENYL)-1H-INDAZOL-5-YL)ETHANOL (ENANTIOMERIC MIX)] | 6.46 | 7.72 | 7.47 | < 50 | 25 | < 5.00 | 50 | 68 | – |
| N#Cc1cc(C(O)(c2ccc3c(cnn3-c3ccc(F)cc3)c2)C(F)(F)F)ccc1F (single isomer, unassigned; (-)) | – | 6.95 | 7.27 | < 50 | – | < 5.00 | – | – | Not Active |
